Assay results published in patent US5891917A, “Certain acrylonitrile-sulfonamide derivatives” (Sugen, Inc., priority 1997, dated 1999).

Legend:
MCF7/HER2 cells = experiment: MCF-7/HER-2 SRB Growth Assay; format: cell-based; settings: Homo sapiens, read-out: Growth Data: MC7/HER2 (0.5% FBS)
Description: (§1) The following examples illustrate the ability of the exemplary compounds to inhibit receptor tyrosine kinases, such as HER2 and/or EGFR. The following target cells were used for cellular kinase assays: NIH3T3 clone C7 (Honegger et al., supra) engineered to over-express human EGF receptor; NIH3T3 cells engineered to over-express a chimeric receptor containing the EGFR extracellular domain and the HER2 intracellular kinase domain; the human mammary carcinoma line BT474 (ATCC HTB2) expressing HER2; and the human glioblastoma line U1242 that expresses PDGFR-beta. Growth assays were carried out using human mammary epithelial SKBR3 (ATCC HTB30) cells (SKBR3 cells over-express HER2), SKOV3 (ATCC HTB77) human ovarian cancer cell line (SKOV3 cells also over-express HER2), A431 cells (A431 cells over-express EGFR) MCF7 human breast carcinoma cells, MCF7 cells overexpressing the HER2 kinase (MCF7-HER2), NIH3T3 cells, and NIH3T3 cells overexpressing the HER2 kinase (3T3-HER2.
MCF-7/HER-2 SRB Growth Assay
The protocol is basically the same as that above (for the MCF-7 Growth Assay) except that immediately before the 30 compound is added, the normal growth media is removed and 0.5% FBS/RPMI supplemented with 2 mM Glutamine is added onto the cells. The compound is also prepared in this 0.5% serum media. The plate of cells is incubated for four days and developed as usual.

PDGFR-beta = biological target: T1, PDGFR-beta (Homo sapiens, UniProt P09619); experiment: PDGF-R Cellular Assay (ELISA); format: cell-based; settings: U1242 MG cells, 100 ng/ml PDGF-BB
T1 construct: the human glioblastoma line U1242 that expresses PDGFR-beta; endogenous in cells; host or cells: U1242 MG human glioblastoma cells
Description: as §1
The PDGF cellular kinase assay was carried out as follows: cells are lysed in 0.2M Hepes, 0.15M NaCl, 10% V/V glycerol, 0.04% Triton X-100, 5 mM EDTA, 5 rnM Na+ vanadate and 2 mM Na+ pyrophosphate; cell lysates are then added to an ELISA plate coated with an anti-PDGF receptor antibody (Genzyme); ELISA plates are coated at 0.5 μg of antibody/well in 150 μl of PBS for 18 hours at 4° C. prior to the addition of the lysate; the lysate is incubated in the coated plates for 1 hour and then washed four times in TBST (35 mM Tris-HCl pH 7.0, 0.15M NaCl, 0.1% Triton X100); anti-phosphotyrosine antibody (100 μl in PBS) is added and the mixture is incubated for 30 minutes at room temperature; the wells were then washed four times in TBST, a secondary antibody conjugated to POD (TAGO) is added to each well, and the treated well are incubated for 30 minutes at room temperature; the wells are then washed four times in TBST, ABTS/H2 O2 solution is added to each well and the wells are incubated for two minutes; absorbance is then measured at 410 nm.
U1242 MG cells were plated in 96-well plates at a concentration of 5×10^4 cells/well in cultured media containing 0.5% FBS. The cells were incubated for 24 hours. The cells were then treated with a particular compound for 2 hours followed by the addition of 100 ng/ml PDGF-BB and incubation for 10 minutes.
Cells were lysed in 0.2M Hepes, 0.15M NaCl, 10% V/V glycerol, 0.04% Triton X-100, 5 mM EDTA, 5 mM Na+ vanadate and 2 mM Na+ pyrophosphate. Cell lysates were then added to an ELISA plate coated with an anti-PDGF receptor antibody (Genzyme). ELISA plates were coated at 0.5 μg of antibody/well in 150 μl of PBS for 18 hours at 4° C. prior to the addition of the lysate.
The lysate was incubated in the coated plates for 1 hour and then washed four times in TBST (35 mM Tris-HCl pH 7.0, 0.15M NaCl, 0.1 % Triton X-100). Anti-phosphotyrosine antibody (100 μl in PBS) was added and the mixture was incubated for 30 minutes at room temperature. The wells were then washed four times in TBST, a secondary antibody conjugated to POD (TAGO) was added to each well, and the treated well were incubated for 30 minutes at room temperature. The wells were then washed four times in TBST, ABTS/H2 O2 solution was added to each well and the wells were incubated for two minutes. Absorbance was then measured at 410 nm.

T1 sequence (P09619 33-1106): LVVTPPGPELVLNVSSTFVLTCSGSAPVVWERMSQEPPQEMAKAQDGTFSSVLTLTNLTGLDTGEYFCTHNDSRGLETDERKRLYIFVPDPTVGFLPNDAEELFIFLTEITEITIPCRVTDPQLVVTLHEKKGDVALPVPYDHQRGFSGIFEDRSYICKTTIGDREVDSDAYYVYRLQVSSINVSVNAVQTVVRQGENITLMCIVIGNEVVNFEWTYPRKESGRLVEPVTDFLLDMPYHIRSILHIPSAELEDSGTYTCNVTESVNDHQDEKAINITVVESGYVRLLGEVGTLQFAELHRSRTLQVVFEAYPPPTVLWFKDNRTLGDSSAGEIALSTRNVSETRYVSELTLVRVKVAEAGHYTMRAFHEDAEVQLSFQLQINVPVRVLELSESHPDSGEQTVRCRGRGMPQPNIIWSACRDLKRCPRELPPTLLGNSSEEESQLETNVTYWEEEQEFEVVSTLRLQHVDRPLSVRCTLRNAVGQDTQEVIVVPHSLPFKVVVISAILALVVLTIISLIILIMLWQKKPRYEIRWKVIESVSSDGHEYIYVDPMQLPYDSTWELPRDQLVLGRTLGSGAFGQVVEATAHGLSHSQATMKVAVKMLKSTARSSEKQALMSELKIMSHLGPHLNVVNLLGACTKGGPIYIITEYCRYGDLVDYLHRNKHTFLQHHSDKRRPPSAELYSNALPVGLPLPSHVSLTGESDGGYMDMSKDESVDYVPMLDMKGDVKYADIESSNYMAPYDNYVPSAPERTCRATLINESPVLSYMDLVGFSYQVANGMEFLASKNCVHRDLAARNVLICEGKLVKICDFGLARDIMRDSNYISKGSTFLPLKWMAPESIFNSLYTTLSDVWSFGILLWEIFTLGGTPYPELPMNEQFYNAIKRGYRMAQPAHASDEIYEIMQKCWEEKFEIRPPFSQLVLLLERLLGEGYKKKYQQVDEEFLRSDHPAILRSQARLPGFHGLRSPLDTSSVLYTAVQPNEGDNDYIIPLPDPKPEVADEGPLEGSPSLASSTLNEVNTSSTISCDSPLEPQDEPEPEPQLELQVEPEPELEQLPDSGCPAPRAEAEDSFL

Compound | IC50 (MCF7/HER2 cells) [µM] | IC50 (PDGFR-beta) [µM]
N#C/C(=C\c1ccc(O)cc1Cl)S(=O)(=O)NCCCc1ccccc1 [Compound 734] | 7 | > 50
CC(C)c1cc(/C=C(\C#N)S(=O)(=O)NCc2ccccc2)cc(C(C)C)c1O [Compound 732] | 2.5 | 50
N#C/C(=C\c1ccc(O)cc1Cl)S(=O)(=O)NCc1ccccc1 [Compound 733] | 16 | > 50
CC(C)c1cc(/C=C(\C#N)S(=O)(=O)c2ccccn2)cc(C(C)C)c1O [Compound 747] | 26 | > 50
Cc1cc(/C=C(\C#N)S(=O)(=O)Cc2cccc(C(F)(F)F)c2)cc(C)c1O [Compound 739] | 14 | > 100
CC(C)c1cc(/C=C(\C#N)S(=O)(=O)c2ccccc2)cc(C(C)C)c1O [Compound 731] | 1 | > 50
Cc1cc(/C=C(\C#N)S(=O)(=O)c2ccc(F)cc2)cc(C)c1O [Compound 744] | 46 | > 100
CC(C)c1cc(/C=C(\C#N)S(=O)(=O)c2ccc(F)cc2)cc(C(C)C)c1O [Compound 741, (E)-3-(3,5-Diisopropyl-4-hydroxyphenyl)-2-(4-fluorophenylsulfonyl)acrylonitrile] | 1 | > 100
CC(C)c1cc(/C=C(\C#N)S(=O)(=O)Cc2cccc(C(F)(F)F)c2)cc(C(C)C)c1O [Compound 736] | 1 | > 100
N#C/C(=C\c1ccc(O)c(O)c1)S(=O)(=O)c1cccs1 [Compound 743, (E)-3-(3,4-Dihydroxyphenyl)-2-[(thien-2-yl)sulfonyl]acrylonitrile] | – | > 100

Results, then the compound that gave them:

IC50 (MCF7/HER2 cells) [µM] | IC50 (PDGFR-beta) [µM] | Compound
3 | > 100 | CC(C)c1cc(/C=C(\C#N)S(=O)(=O)c2ccsc2)cc(C(C)C)c1O [Compound 738]
0.5 | > 100 | CC(C)(C)c1cc(/C=C(\C#N)S(=O)(=O)Cc2cccc(C(F)(F)F)c2)cc(C(C)(C)C)c1O [Compound 735]
46 | > 100 | Cc1cc(/C=C(\C#N)S(=O)(=O)c2ccccc2)cc(C)c1O [Compound 748]
0.2 | > 100 | CC(C)(C)c1cc(/C=C(\C#N)S(=O)(=O)c2cccs2)cc(C(C)(C)C)c1O [Compound 742]
0.3 | > 100 | CC(C)(C)c1cc(/C=C(\C#N)S(=O)(=O)c2ccsc2)cc(C(C)(C)C)c1O [Compound 746]
3 | > 100 | CC(C)c1cc(/C=C(\C#N)S(=O)(=O)c2cccs2)cc(C(C)C)c1O [Compound 737]
0.007 | > 100 | CC(C)(C)c1cc(/C=C(\C#N)S(=O)(=O)c2ccc(F)cc2)cc(C(C)(C)C)c1O [Compound 740]
